From PMC5097697 (Analytical biochemistry, 2016)

Tested on: Sinapis alba myrosinase
Assay: HPLC progress curves
Format: biochemical
Settings: pH 7.4, 37 °C; pooled wavelength data (220, 227, 235, 241 nm); myrosinase 8.83 U/ml

Km: 798 ± 71 µM
SMILES: O=S(=O)(O)O/N=C(/CC(c1ccccc1)c1ccccc1)S[C@@H]1O[C@H](CO)[C@@H](O)[C@H](O)[C@H]1O [compound 5, 2,2-Diphenylethyl glucosinolate]
